Assay results reported in ChEMBL document CHEMBL5321275, “Discovery, Optimization, and Evaluation of Novel N-(Benzimidazol-5-yl)-1,3,4-thiadiazol-2-amine Analogues as Potent STAT3 Inhibitors for Cancer Treatment” (J Med Chem, 2023).
Calls of active or inactive are those of the source. The calls are words filed in the database; no cut-off is given here.

Legend:
HEK-Blue IL-6 = test: Inhibition of IL-6/JAK/STAT3 signalling pathway in HEK-Blue IL-6 cells at 10 uM incubated for 16 hrs by QUANTI-blue assay relative to control; format: cell-based; conditions: Homo sapiens
DU-145 [1] = test: Antiproliferative activity against human DU-145 cells assessed as inhibition of cell growth at 10 uM measured after 96 hrs by MTT assay relative to control; format: functional
HepG2 = test: Antiproliferative activity against human HepG2 cells assessed as inhibition of cell growth measured after 96 hrs by MTT assay; format: functional, cell-based; conditions: HepG2, 96 h
[2] = Antiproliferative activity against human PBMC cells assessed as inhibition of cell growth measured after 96 hrs by MTT assay; format: functional, cell-based
[3] = Metabolic stability in mouse liver microsomes assessed as half life in presence of NADPH/UDPGA; format: ADME, Microsome
[4] = biological target: T1, Signal transducer and activator of transcription 3 (Homo sapiens, UniProt P40763); test: Inhibition of STAT3 phosphorylation at Tyr705 residue in human DU-145 cells incubated for 24 hrs by Western blot analysis; format: cell-based; conditions: dose <= 10.0 µM
[5] = biological target: T1, Signal transducer and activator of transcription 3; test: Inhibition of STAT3 phosphorylation at Tyr705 residue in human MDA-MB-231 cells incubated for 24 hrs by Western blot analysis; format: cell-based; conditions: dose <= 10.0 µM
[6] = biological target: T1, Signal transducer and activator of transcription 3; test: Binding affinity to STAT3 (unknown origin) assessed as conformational change in STAT3 protein measured after 1 hr by circular dichroism method
[7] = biological target: T1, Signal transducer and activator of transcription 3; test: Inhibition of 5-carboxyfluorescein-GY(PO3H2)LPQTV-NH2 peptide probe binding to human STAT3 SH2 domain preincubated for 30 mins followed by probe addition and measured after 1 hr by fluorescence polarization assay
[8] = biological target: T1, Signal transducer and activator of transcription 3; test: Inhibition of STAT3 dimerization in human DU-145 cells assessed as increase in amount of STAT3 monomer at upto 10 uM measured after 12 hrs; format: cell-based
[9] = biological target: T1, Signal transducer and activator of transcription 3; test: Inhibition of STAT3 in human DU-145 cells assessed as downregulation of c-myc expression at upto 10 uM measured after 24 hrs; format: cell-based
[10] = biological target: T1, Signal transducer and activator of transcription 3; test: Inhibition of STAT3 in human DU-145 cells assessed as downregulation of Bcl-2 expression at upto 10 uM measured after 24 hrs; format: cell-based
DU-145 [11] = test: Induction of cell cycle arrest in human DU-145 cells assessed as accumulation of cells at G0/G1 phase measured after 24 hrs by PI staining based flow cytometry analysis; format: functional; conditions: dose <= 10.0 µM
MDA-MB-231 [12] = test: Induction of cell cycle arrest in human MDA-MB-231 cells assessed as accumulation of cells at G0/G1 phase measured after 24 hrs by PI staining based flow cytometry analysis; format: functional; conditions: dose <= 10.0 µM
DU-145 [13] = test: Induction of apoptosis in human DU-145 cells assessed as early apoptotic cells at 5 uM measured after 48 hrs by annexin V-FITC and PI staining based flow cytometry analysis (reference value: 2.5%); format: functional
DU-145 [14] = test: Induction of apoptosis in human DU-145 cells assessed as late apoptotic cells at 1 uM measured after 48 hrs by annexin V-FITC and PI staining based flow cytometry analysis (reference value: 2.0%); format: functional
DU-145 [15] = test: Induction of apoptosis in human DU-145 cells assessed as late apoptotic cells at 5 uM measured after 48 hrs by annexin V-FITC and PI staining based flow cytometry analysis (reference value: 2.0%); format: functional
DU-145 [16] = test: Induction of apoptosis in human DU-145 cells assessed as late apoptotic cells at 10 uM measured after 48 hrs by annexin V-FITC and PI staining based flow cytometry analysis (reference value: 2.0%); format: functional
MDA-MB-231 [17] = test: Induction of apoptosis in human MDA-MB-231 cells assessed as early apoptotic cells at 5 uM measured after 48 hrs by annexin V-FITC and PI staining based flow cytometry analysis (reference value: 6.7%); format: functional
MDA-MB-231 [18] = test: Induction of apoptosis in human MDA-MB-231 cells assessed as early apoptotic cells at 10 uM measured after 48 hrs by annexin V-FITC and PI staining based flow cytometry analysis (reference value: 6.7%); format: functional
MDA-MB-231 [19] = test: Induction of apoptosis in human MDA-MB-231 cells assessed as late apoptotic cells at 1 uM measured after 48 hrs by annexin V-FITC and PI staining based flow cytometry analysis (reference value: 3.1%); format: functional
MDA-MB-231 [20] = test: Induction of apoptosis in human MDA-MB-231 cells assessed as late apoptotic cells at 5 uM measured after 48 hrs by annexin V-FITC and PI staining based flow cytometry analysis (reference value: 3.1%); format: functional
DU-145 [21] = test: Induction of apoptosis in human DU-145 cells assessed as cell apoptotic percentage at 10 uM measured after 48 hrs by annexin V-FITC and PI staining based flow cytometry analysis relative to control; format: functional
DU-145 [22] = test: Induction of apoptosis in human DU-145 cells measured after 48 hrs by annexin V-FITC and PI staining based flow cytometry analysis; format: functional, cell-based; conditions: dose <= 10.0 µM
[23] = Toxicity in Balb/c mouse assessed as serious adverse effect at 50 mg/kg, ip administered once daily for 16 days; format: organism-based; conditions: in vivo, 384 h, time 16 day
[24] = Toxicity in Balb/c mouse assessed as effect on kidney at 50 mg/kg by hematoxylin and eosin staining based histopathological analysis; format: organism-based; conditions: in vivo
[25] = Toxicity in Balb/c mouse assessed as effect on spleen at 50 mg/kg by hematoxylin and eosin staining based histopathological analysis; format: organism-based; conditions: in vivo
DU-145 [26] = test: Antitumor activity against human DU-145 cells xenografted in Balb/c nude mouse model assessed as reduction in phosphorylated STAT3 at Y705 residue by immunoblotting analysis; format: functional, cell-based
[27] = Drug concentration in ICR mouse plasma at 50 mg/kg, po measured after 2 to 8 hrs; format: ADME, organism-based; conditions: in vivo, time 2-8 hrs
[28] = Drug concentration in ICR mouse plasma at 5 mg/kg, iv measured at 2 mins; format: ADME, organism-based
[29] = AUC (0 to infinity) in ICR mouse at 50 mg/kg, po measured upto 96 hrs by HPLC-MS/MS analysis; format: ADME, organism-based; design: time < 96 hrs, dose 50 mg/kg, route po; conditions: in vivo
[30] = Half life in ICR mouse at 50 mg/kg, po measured upto 96 hrs by HPLC-MS/MS analysis; format: ADME, organism-based; conditions: in vivo
[31] = Tmax in ICR mouse at 50 mg/kg, po measured upto 96 hrs by HPLC-MS/MS analysis; format: ADME, organism-based; conditions: in vivo
[32] = Cmax in ICR mouse at 50 mg/kg, po measured upto 96 hrs by HPLC-MS/MS analysis; format: ADME, organism-based; design: time < 96 hrs, dose 50 mg/kg, route po; conditions: in vivo
[33] = MRT (0 to infinity) in ICR mouse at 5 mg/kg, iv measured upto 96 hrs by HPLC-MS/MS analysis; format: ADME, organism-based; conditions: in vivo
[34] = Half life in ICR mouse at 5 mg/kg, iv measured upto 96 hrs by HPLC-MS/MS analysis; format: ADME, organism-based; conditions: in vivo
[35] = Tmax in ICR mouse at 5 mg/kg, iv measured upto 96 hrs by HPLC-MS/MS analysis; format: ADME, organism-based; conditions: in vivo
[36] = Volume of distribution at steady state in ICR mouse at 5 mg/kg, iv measured upto 96 hrs by HPLC-MS/MS analysis; format: ADME, organism-based; conditions: in vivo, read-out: Vdss
[37] = Oral bioavailability in ICR mouse at 50 mg/kg measured upto 96 hrs by HPLC-MS/MS analysis; format: ADME, organism-based; conditions: in vivo

T1 sequence (P40763 whole entry): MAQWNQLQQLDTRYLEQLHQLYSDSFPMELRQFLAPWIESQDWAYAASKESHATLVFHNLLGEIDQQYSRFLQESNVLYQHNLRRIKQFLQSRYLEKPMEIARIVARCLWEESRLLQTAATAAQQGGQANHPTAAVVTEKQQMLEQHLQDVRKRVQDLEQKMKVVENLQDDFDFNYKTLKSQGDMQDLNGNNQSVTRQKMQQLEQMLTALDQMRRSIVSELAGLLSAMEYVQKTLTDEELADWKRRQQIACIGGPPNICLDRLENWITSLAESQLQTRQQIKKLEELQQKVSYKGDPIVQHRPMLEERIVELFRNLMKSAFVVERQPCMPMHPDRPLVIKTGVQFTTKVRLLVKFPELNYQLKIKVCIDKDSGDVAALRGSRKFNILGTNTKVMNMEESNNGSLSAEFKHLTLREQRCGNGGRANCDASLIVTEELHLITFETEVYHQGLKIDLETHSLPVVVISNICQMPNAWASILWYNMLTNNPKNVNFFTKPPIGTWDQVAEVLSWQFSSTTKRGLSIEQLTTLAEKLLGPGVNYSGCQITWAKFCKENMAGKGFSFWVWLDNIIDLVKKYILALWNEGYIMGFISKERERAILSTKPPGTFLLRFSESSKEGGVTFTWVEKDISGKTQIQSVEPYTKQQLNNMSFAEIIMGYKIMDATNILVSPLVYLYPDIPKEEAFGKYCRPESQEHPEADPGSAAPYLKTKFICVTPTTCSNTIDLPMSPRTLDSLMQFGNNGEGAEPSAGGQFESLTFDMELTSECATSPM

CN1CCN(c2cc3c(cc2Nc2nnc(-c4ccc(C(F)(F)F)cc4)s2)nc(-c2ccc(F)cc2)n3C2CC2)CC1
inhibition (HEK-Blue IL-6): 101% | inhibition at 10 µM (DU-145 [1]): 92.7% | IC50 (HepG2): 1.45 µM | IC50 [2]: 16.3 µM | half-life [3]: 6.28 h | inhibition [4]: Dose-Dependent Effect | inhibition [5]: Dose-Dependent Effect | Activity [6]: Active | IC50 [7]: 16 µM | inhibition [8]: Active | inhibition [9]: Active | inhibition [10]: Active | Activity (DU-145 [11]): Dose-Dependent Effect | Activity (MDA-MB-231 [12]): Dose-Dependent Effect | Activity (DU-145 [13]): 6.9% | Activity (DU-145 [14]): 2.4% | Activity (DU-145 [15]): 13.9% | Activity (DU-145 [16]): 45.6% | Activity (MDA-MB-231 [17]): 12.1% | Activity (MDA-MB-231 [18]): 59.2% | Activity (MDA-MB-231 [19]): 5.1% | Activity (MDA-MB-231 [20]): 10.7% | Activity (DU-145 [21]): 79.6% | Activity (DU-145 [22]): Dose-Dependent Effect | Activity [23]: Non-Toxic | Activity [24]: Non-Toxic | Activity [25]: Non-Toxic | Activity (DU-145 [26]): Active | Cp [27]: 771 ng/mL | concentration at 2 min [28]: 549 ng/mL | AUC(0-inf) [29]: 17800 ng·h/mL | half-life [30]: 9.94 h | Tmax [31]: 4.67 h | Cmax [32]: 910 ng/mL | MRT inf [33]: 15.3 h | half-life [34]: 9 h | Tmax [35]: 3 min | Vd [36]: 19 L/kg | bioavailability [37]: 52%
